Source: patent US8309554B2 (priority 2008, dated 2012)
Read-outs that look alike come from different tables or passages of the source.

What was measured:
Assay in all cases: cells
Format in all cases: cell-based
H460 = conditions: for IC50: Homo sapiens
H460 spheroid = conditions: Homo sapiens
HT29 = conditions: for IC50: Homo sapiens, HT-29, 2 h
[1] = NCI-H460, read-out: 2 h Air H460 monolayer IC50
[2] = NCI-H460, read-out: 2 h N2 H460 monolayer IC50
[3] = NCI-H460, read-out: 2 h Air H460 spheroid IC50
[4] = NCI-H460, read-out: 2 h N2 H460 spheroid IC50
[5] = NCI-H460, 2 h, read-out: 2 hr Air H460 IC50
[6] = NCI-H460, 2 h, read-out: 2 hr N2 H460 IC50

Row | SMILES | IC50 (H460; [1]) [µM] | IC50 (H460; [2]) [µM] | IC50 (H460 spheroid; [3]) [µM] | IC50 (H460 spheroid; [4]) [µM] | H460 HCR: Air/N2 (H460) | IC50 (H460; [5]) [µM] | IC50 (H460; [6]) [µM] | IC50 (HT29; read-out: 2 hr Air HT29 IC50) [µM] | IC50 (HT29; read-out: 2 hr N2 HT29 IC50) [µM] | HT29 HCR: Air/N2 (HT29)
1 | CN(c1ccc(N(CCCl)CCCl)cc1)S(=O)(=O)Cn1ccnc1[N+](=O)[O-] [TH-1107] | 113 | 7.9 | < 0.69 | < 0.69 |  |  |  |  |  | 
2 | Cc1cc(OS(=O)(=O)C(C)c2ccsc2[N+](=O)[O-])ccc1N(CCCl)CCCl (centres unmarked) [TH-1120] | 2.4 | 0.3 | < 0.08 | < 0.08 |  |  |  |  |  | 
3 | CN(c1ccc(N(CCCl)CCCl)cc1)S(=O)(=O)C(C)(C)c1cnc([N+](=O)[O-])n1C [TH-1126] | 45 | 7.1 | < 0.69 | < 0.69 |  |  |  |  |  | 
4 | CC(n1ccnc1[N+](=O)[O-])S(=O)(=O)N(C)c1ccc(N(CCCl)CCCl)cc1 (centres unmarked) [TH-1127] | 37 | 3.9 | < 0.69 | < 0.69 |  |  |  |  |  | 
5 | Nc1cccc(OS(=O)(=O)CCC(c2ccsc2[N+](=O)[O-])S(=O)(=O)Oc2ccc(N(CCCl)CCCl)cc2)c1 (centres unmarked) [TH-1402] |  |  |  |  | 93.3 | 140 | 1.5 | > 1000 | > 1000 | 
6 | O=C(CO)Nc1cccc(OS(=O)(=O)CCC(c2ccsc2[N+](=O)[O-])S(=O)(=O)Oc2ccc(N(CCCl)CCCl)cc2)c1 (centres unmarked) [TH-1414] |  |  |  |  | 54 | 135 | 2.5 | 740 | 100 | 7
7 | O=[N+]([O-])c1sccc1C(Cc1nccs1)S(=O)(=O)Oc1ccc(N(CCCl)CCCl)cc1 (centres unmarked) [TH-1419] |  |  |  |  | 45 | 36 | 0.8 | > 300 | > 300 | 
8 | O=[N+]([O-])c1sccc1C(Cc1cnc(OCCO)c(Cl)c1)S(=O)(=O)Oc1ccc(N(CCCl)CCCl)cc1 (centres unmarked) [TH-1420] |  |  |  |  | 62 | 80 | 1.3 | > 300 | > 300 | 
9 | CCCN(CCCl)c1ccc(OS(=O)(=O)C(Cc2ncco2)c2ccsc2[N+](=O)[O-])cc1 (centres unmarked) [TH-1422] |  |  |  |  | 88 | 35 | 0.4 | > 300 | 90 | >3.3
10 | O=[N+]([O-])c1sccc1C(Cc1ccc(C(F)(F)F)nc1)S(=O)(=O)Oc1ccc(N(CCCl)CCCl)cc1 (centres unmarked) [TH-1423] |  |  |  |  | 750 | 300 | 0.4 | > 300 | > 300 | 
11 | O=[N+]([O-])c1sccc1C(Cc1ccc(N2CCOCC2)nc1)S(=O)(=O)Oc1ccc(N(CCCl)CCCl)cc1 (centres unmarked) [TH-1426] |  |  |  |  | 950 | 190 | 0.2 | > 300 | > 300 | 
12 | O=[N+]([O-])c1sccc1C(Cc1ccc2nccn2c1)S(=O)(=O)Oc1ccc(N(CCCl)CCCl)cc1 (centres unmarked) [TH-1435, 3-(4-(N,N-bis-(2-Chloroethyl)amino)phenoxysulfonyl-(imidazopyidin-5-yl-methyl))methyl-2-nitrothiophene] |  |  |  |  | 30 | 18 | 0.6 | > 300 | 8.5 | >35
13 | CNc1ccc(CC(c2ccsc2[N+](=O)[O-])S(=O)(=O)Oc2ccc(N(CCCl)CCCl)cc2)cn1 (centres unmarked) [TH-1442] |  |  |  |  | 116 | 93 | 0.8 | 230 | 3.5 | 66
14 | O=[N+]([O-])c1sccc1C(Cc1ccc2c(c1)nnn2CCO)S(=O)(=O)Oc1ccc(N(CCCl)CCCl)cc1 (centres unmarked) [TH-1451, 3-(4-(N,N-bis-(2-Chloroethyl)amino)phenoxysulfonyl-(1-(2-hydroxyethyl)benzotriazol-5-yl-methyl))methyl-2-nitrothiophene] |  |  |  |  | 110 | 110 | 1 | 250 | 6 | 42
15 | O=[N+]([O-])c1sccc1C(Cc1cn2ccccc2n1)S(=O)(=O)Oc1ccc(N(CCCl)CCCl)cc1 (centres unmarked) [TH-1456, 3-(4-(N,N-bis-(2-Chloroethyl)amino)phenoxysulfonyl-(imidazopyridin-2-yl-methyl))methyl-2-nitrothiophene] |  |  |  |  | 100 | 30 | 0.3 | > 300 | 5 | >60
16 | O=[N+]([O-])c1sccc1C(Cc1ccc2nnn(CCO)c2c1)S(=O)(=O)Oc1ccc(N(CCCl)CCCl)cc1 (centres unmarked) [TH-1457, 3-(4-(N,N-bis-(2-Chloroethyl)amino)phenoxysulfonyl-(1-(2-hydroxyethyl)benzotriazol-6-yl-methyl))methyl-2-nitrothiophene] |  |  |  |  | 240 | 120 | 0.5 | 180 | 4 | 45
17 | C[C@H](O)C(=O)Nc1ccc(CC(c2ccsc2[N+](=O)[O-])S(=O)(=O)Oc2ccc(N(CCCl)CCCl)cc2)cn1 (some centres unmarked) [TH-1465, 3-(4-(N,N-bis-(2-Chloroethyl)amino)phenoxysulfonyl-(2-(lactic acylamino)pyridine-5-yl-methyl))methyl-2-nitrothiophene] |  |  |  |  | 50 | 40 | 0.8 | 210 | 7 | 30
18 | COCC(=O)N(C)c1ccc(CC(c2ccsc2[N+](=O)[O-])S(=O)(=O)Oc2ccc(N(CCCl)CCCl)cc2)cn1 (centres unmarked) [TH-1478, 3-(4-(N,N-bis-(2-Chloroethyl)amino)phenoxysulfonyl-(2-(N-methoxyacetyl-N-methylamino)pyridin-5-yl-methyl))methyl-2-nitrothiophene] |  |  |  |  | 300 | 120 | 0.4 | 220 | 20 | 11
19 | COCC(=O)Nc1ccc(CC(c2ccsc2[N+](=O)[O-])S(=O)(=O)Oc2ccc(N(CCCl)CCCl)cc2)cc1 (centres unmarked) [TH-1479] |  |  |  |  | 325 | 260 | 0.8 | > 300 | 110 | 2.7
20 | O=[N+]([O-])c1sccc1C(Cc1ccc(O[C@H]2CCCC[C@@H]2O)nc1)S(=O)(=O)Oc1ccc(N(CCCl)CCCl)cc1 (some centres unmarked) [TH-1487] |  |  |  |  | 64 | 51 | 0.8 | 240 | 280 | 1
21 | O=[N+]([O-])c1sccc1C(COC1CCCCC1)S(=O)(=O)Oc1ccc(N(CCCl)CCCl)cc1 (centres unmarked) [TH-1521] |  |  |  |  | 180 | 234 | 1.3 | > 300 | 93 | >3.2
22 | CCN(CC)CC#CCC(c1ccsc1[N+](=O)[O-])S(=O)(=O)Oc1ccc(N(CCCl)CCCl)cc1 (centres unmarked) [TH-1545] |  |  |  |  | 51 | 102 | 2 | 60 | 5 | 12
